This is an account of results in patent US5624935A, “Heterocyclic compounds having anti-diabetic activity and their use” (Sankyo Company, Limited, priority 1994, dated 1997).

In one data set the test system is blood glucose level. Put plainly: Hypoglycemic activity in hyperglycemic KK mice. It counts as in vivo, hyperglycemic male mice of the KK strain. The note with it: Mus musculus, oral, 18 hours, vs solvent-only group, read-out: Hypoglycemic effect. The procedure:
The test animals used were hyperglycemic male mice of the KK strain, each having a body weight of at least 40 g. The compounds under test were mixed with a 1:1 by volume mixture of polyethylene glycol 400 and water. Each animal was orally administered a test compound in the amount shown in the following Table 6 and then allowed to feed freely for 18 hours. At the end of this time, blood was collected from the tail veins without anesthesia. The blood glucose level (BGL) was determined by means of a glucose analyzer (GL-101, manufactured by Mitsubishi Kasei Co. or a Glucoroder-F manufactured by Shino Test Co.).
The hypoglycemic effect was calculated by the following equation: [formula] where: BGLs is the blood glucose level in the group administered a solvent only, but no active compound; and
BGLt is the blood glucose level in the group administered a test compound.
The results are shown in the following Table 6, in which each compound of the present invention is identified by the number of one of the following Examples in which its preparation is illustrated.

The target in data set [1] is T1, Bovine lens aldose reductase (Bos taurus, UniProt P16116).
T1 construct: Bovine lens aldose reductase was separated and partially purified; from tissue; host or cells: bovine lens
Nature of the data set: Inhibition of Aldose reductase. Particulars: for inhibition at 5 µg/mL: read-out: Inhibition at 5 μg/ml. It counts as biochemical. The procedure: Bovine lens aldose reductase was separated and partially purified by the method of S. Hyman and J. H. Kinoshita [J. Biol. Chem., 240, 877 (1965)] and K. Inagaki, I. Miwa and J. Okuda [Arch. Biochem. Biophys., 316, 337 (1982)], and its activity was determined photometrically by the method of Varma et al. [Biochem. Pharmac., 25, 2505 (1976)]. Inhibition of enzyme activity was measured for the compounds of the present invention at a concentration of 5 μg/ml, and the measured values were used to calculate the IC50 values.

The subject of another data set is male F344 rats. Put plainly: Toxicity, 2 weeks oral in rats. It counts as in vivo. The note with it: for mortality rate: oral, 50 mg/kg per day, 2 weeks, male F344 rats; for abnormalities which could be attributed to the test compounds: rat, in vivo, po, 50 mg/kg/day. The protocol:
The toxicity of the compounds of the present invention was tested on male F344 rats, divided into groups of 5. The test compound was adminstered orally to each test animal at a dose of 50 mg/kg of body weight per day for 2 weeks. The test compounds used were those of Examples 7 and 17 .

Regarding `O=C1NC(=O)C(Cc2ccc(OCCn3ccc4ccccc43)cc2)S1` (stereo not drawn) [Example 6, 5-{4-[2-(Indol-1-yl)ethoxy]benzyl}thiazolidine-1-dione], the inhibition in vivo at 10 mg/kg in the data set with blood glucose level turned out to be 20.9%. Also, in data set [1], the inhibition at 5 µg/mL came out at 47%.

As for `Cn1c(COc2ccc(CC3SC(=O)NC3=O)cc2)nc2cc(Br)cnc21` (stereo not drawn) [Example 22, 5-{4-(6-Bromo-3-methyl-3H-imidazo[4,5-b]pyridin-2-ylmethoxy)benzyl}thiazolidine-2,4-dione], the inhibition in vivo at 1 mg/kg with blood glucose level is 10.2%. For the same compound, in data set [1], inhibition was half-maximal at 4.02 µM (IC50) and the inhibition at 5 µg/mL stood at 77.2%.

As to `Cn1c(COc2ccc(CC3SC(=O)NC3=O)cc2)nc2cc(Cl)cnc21` (stereo not drawn) [Example 23, 5-{4-(6-Chloro-3-methyl-3H-imidazo[4,5-b]pyridin-2-ylmethoxy)benzyl}thiazolidine-2,4-dione], the inhibition in vivo at 1 mg/kg with blood glucose level stood at 21.7%. Moreover, in data set [1], the IC50 was 3.23 µM and the inhibition at 5 µg/mL came out at 94.9%.

`CCn1c(COc2ccc(CC3SC(=O)NC3=O)cc2)nc2cccnc21` (stereo not drawn) [Example 12, 5-{4-(3-Ethyl-3H-imidazo[4,5-b]pyridin-2-ylmethoxy)-benzyl}thiazolidine-2,4-dione]: the half-maximal inhibitory concentration (IC50) in data set [1] was 4.45 µM.

Regarding `Cc1ccnc2c1nc(COc1ccc(CC3SC(=O)NC3=O)cc1)n2C` (stereo not drawn) [Example 16, 5-{4-(3,7-Dimethyl-3H-imidazo[4,5-b]pyridin-2-ylmethoxy)benzyl}thiazolidine-2,4-dione], in data set [1], 9.67 µM corresponded to half-maximal inhibition (IC50) and the inhibition at 5 µg/mL was 59.1%.

Turning to `Cn1c(COc2ccc(CC3SC(=O)NC3=O)cc2)nc2cccnc21` (stereo not drawn) [Example 7, 5-{4-(3-Methyl-3H-imidazo[4,5-b]pyridin-2-methoxyl)-benzyl}thiazolidine-2,4-dione], the inhibition in vivo at 1 mg/kg in the data set on blood glucose level was determined as 24.7%. For the same compound, inhibition in data set [1] was half-maximal at 2.71 µM (IC50). In the data set on male F344 rats, the mortality rate result was “zero” and the “abnormalities which could be attributed to the test compounds” value is recorded as “no abnormalities”.

Consider `O=C1NC(=O)C(Cc2ccc(OCc3nc4cccnc4n3-c3ccccc3)cc2)S1` (stereo not drawn) [Example 27], for which, in data set [1], the IC50 is 1.97 µM and the inhibition at 5 µg/mL was 91.8%.

As for `O=C1NC(=O)C(Cc2ccc(OCCN3CCc4ccccc43)cc2)S1` (stereo not drawn) [Example 3, 5-{4-[2-(Indolin-1-yl)ethoxyl]benzyl}thiazolidine-2,4-dione], the inhibition in vivo at 10 mg/kg with blood glucose level stood at 27%. This compound also gave an IC50 in data set [1] of 10 µM.

Turning to `O=C1NC(=O)C(Cc2ccc(OCc3nc4ncccc4[nH]3)cc2)S1` (stereo not drawn) [Example 15, 5-{4-(1H-Imidazo[4,5-b]pyridin-2-ylmethoxy)benzyl}-thiazolidine-2,4-dione], the inhibition in vivo at 1 mg/kg in the data set with blood glucose level worked out at 13.8%. This compound also had an IC50 in data set [1] of 6.77 µM.

Consider `O=C1NC(=O)C(Cc2ccc(OCC3Cc4ccccc4N3)cc2)S1` (stereo not drawn) [Example 1, 5-[4-(Indolin-2-ylmethoxy)benzyl]thiazolidine-2,4-dione], for which, in the data set with blood glucose level, the inhibition in vivo at 10 mg/kg worked out at 13.2%. The inhibition at 5 µg/mL in data set [1] worked out at 54.5%.

In the case of `Cn1c(COc2ccc(CC3SC(=O)NC3=O)cc2)cc2ccccc21` (stereo not drawn) [Example 10, 5-[4-(1-Methylindol-2-ylmethoxy)benzyl]thiazolidine-2,4-dione], in the data set on blood glucose level, the inhibition in vivo at 1 mg/kg came out at 11.6%.

On to `O=C1NC(=O)C(Cc2ccc(OCc3nc4cccnc4n3Cc3ccc(Cl)cc3)cc2)S1` (stereo not drawn) [Example 20, 5-(4-{3-(4-Chlorobenzyl)-3H-imidazo[4,5-b]pyridin-2-ylmethoxyl}benzyl)thiazolidine-2,4-dione], for which the inhibition in vivo at 1 mg/kg in the data set with blood glucose level stood at 24.5%. Moreover, in data set [1], 3.76 µM corresponded to half-maximal inhibition (IC50) and the inhibition at 5 µg/mL was determined as 61.6%.

On to `CN1c2ccccc2CC1COc1ccc(CC2SC(=O)NC2=O)cc1` (stereo not drawn) [Example 2, 5-[4-(1-Methylidolin-2-ylmethoxy)benzyl]thiazolidine-2,4-dione], for which the inhibition in vivo at 1 mg/kg in the data set with blood glucose level is 27.7%. For the same compound, in data set [1], the half-maximal inhibitory concentration (IC50) was 8.68 µM and the inhibition at 5 µg/mL amounted to 58.1%.

On to `Cn1c(COc2ccc(CC3SC(=O)NC3=O)cc2)nc2ncccc21` (stereo not drawn) [Example 13], for which the inhibition in vivo at 1 mg/kg with blood glucose level was 34%. In addition, in data set [1], the IC50 is 7.06 µM.

For the compound `O=C1NC(=O)C(Cc2ccc(OCc3cn4ccccc4n3)cc2)S1` (stereo not drawn) [Example 9, 5-{4-(Imidazo[1,2-a]pyridin-2-ylmethoxy)benzyl}-thiazolidine2,4-dione], in the data set with blood glucose level, the inhibition in vivo at 10 mg/kg is 27.6%. Further, the inhibition at 5 µg/mL in data set [1] was determined as 53.3%.

For `Cn1c(COc2ccc(CC3SC(=O)NC3=O)cc2)nc2cc(C(F)(F)F)cnc21` (stereo not drawn) [Example 18, 5-{4-(3-Methyl-6-trifluoromethyl-3H-imidazo[4,5-b]pyridin-2-ylmethoxy)benzyl}thiazolidine-2,4-dione], in data set [1], the IC50 is 2.02 µM and the inhibition at 5 µg/mL amounted to 76.3%.

In the case of `Cn1c(CCCOc2ccc(CC3SC(=O)NC3=O)cc2)nc2cccnc21` (stereo not drawn) [Example 14, 5-[4-{3-(3-Methyl-3H-imidazo[4,5-b]pyridin-2-yl)-propoxy}-benzyl]thiazolidine-2,4-dione], the inhibition at 5 µg/mL in data set [1] worked out at 53.9%.

The compound `O=C1NC(=O)C(Cc2ccc(OCCc3c[nH]c4ccccc34)cc2)S1` (stereo not drawn) [Example 4, 5-{4-[2-(Indol-3-yl)ethoxy]benzyl}thiazolidine-2.4dione] showed an IC50 in data set [1] of 6.28 µM.

As for `Cn1c(COc2ccc(CC3SC(=O)NC3=O)cc2)nc2cnccc21` (stereo not drawn) [Example 25], in data set [1], the IC50 is 2.42 µM and the inhibition at 5 µg/mL came to 81.6%.

For the compound `O=C1NC(=O)C(Cc2ccc(OCCn3cc(C(c4ccccc4)(c4ccccc4)c4ccccc4)c4ccccc43)cc2)S1` (stereo not drawn) [Example 5, 5-{4-[2-(3-Triphenylmethylindol-1-yl)ethoxyl]-benzyl}thiazolidine-2,4-dione], the inhibition in vivo at 10 mg/kg in the data set on blood glucose level was determined as 16.2%.

For the compound `Cn1c(COc2ccc(CC3SC(=O)NC3=O)cc2)nc2ccc(Cl)nc21` (stereo not drawn) [Example 17, 5-{4-(5-Chloro-3-methyl-3H-imidazo[4,5-b]pyridin-2-ylmethoxy)benzyl}thiazolidine-2,4-dione], the inhibition in vivo at 1 mg/kg in the data set with blood glucose level worked out at 37.1%. This compound also showed an IC50 in data set [1] of 4.47 µM. Further, in the data set with male F344 rats, the mortality rate result is “zero” and the “abnormalities which could be attributed to the test compounds” value is listed as “no abnormalities”.

In general, IC50 refers to the concentration at which inhibition is half-maximal.
